{"source": "patent US10457667B2", "about": "“Indolin-2-one derivatives” (Hoffmann-La Roche Inc., priority 2015, dated 2019)", "key": {"[1]": {"molecular_target": "T1, mouse ENT-1 transporter (Mus musculus, UniProt Q9JIM1)", "T1 construct": "expressed in transfected cells", "T1 sequence (Q9JIM1 1-460)": "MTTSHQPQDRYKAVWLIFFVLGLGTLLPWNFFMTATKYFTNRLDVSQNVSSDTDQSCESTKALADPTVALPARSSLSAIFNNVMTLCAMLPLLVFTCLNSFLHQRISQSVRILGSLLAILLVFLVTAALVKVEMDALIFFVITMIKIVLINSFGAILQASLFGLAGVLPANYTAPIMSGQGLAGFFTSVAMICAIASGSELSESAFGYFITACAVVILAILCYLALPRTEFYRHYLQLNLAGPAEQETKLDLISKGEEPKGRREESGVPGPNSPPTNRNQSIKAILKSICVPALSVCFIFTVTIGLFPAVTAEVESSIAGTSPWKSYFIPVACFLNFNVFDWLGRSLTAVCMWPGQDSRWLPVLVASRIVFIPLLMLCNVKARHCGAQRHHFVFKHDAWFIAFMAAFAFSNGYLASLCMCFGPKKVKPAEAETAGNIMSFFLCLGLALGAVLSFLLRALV", "assay": "ENT1 adenosine uptake inhibition ([3H]-adenosine transport activity)", "format": "cell-based", "conditions": "stable cells expressing mouse ENT-1; [2,8-3H]-adenosine 6 nM, 20 min", "method": "To measure adenosine transport activity of ENT-1 mammalian cells, stable cells expressing the mouse ENT-1 transporter were plated on day 1 in 96-well culture plates at the density of 60,000 cells/well, in complete DMEM/F12 medium supplemented with glutamax, 10% FBS and 10 μg/ml puromycin. On day 2, the medium was aspirated and the cells were washed twice with uptake buffer (10 mM Hepes-Tris, pH 7.4 containing 150 mM NaCl, 1 mM CaCl2, 2.5 mM KCl, 2.5 mM MgSO4, 10 mM D-glucose) (UB). For inhibition experiments, cells were then incubated at RT with various concentrations of compounds with 1% DMSO final. Non-specific uptake was defined in the presence of 10 μM S-(4-Nitrobenzyl)-6-thioinosine (NBTI, Sigma Cat #N2255).\nA solution containing [2,8-^3H]-adenosine 6 nM (40 Ci/mmol, American Radiolabeled chemicals Inc, Cat #ART 0287A) was then immediately added to the wells. The plates were then incubated for 20 min with gentle shaking and the reaction was stopped by aspiration of the mixture and washing (three times) with ice-cold UB. The cells were lysed by the addition of scintillation liquid, shaken 3 hours and the radioactivity in the cells was estimated using a microplates scintillation counter (TopCount NXT, Packard)."}, "[2]": {"tested_on": "behaviors of compound-treated mice", "assay": "SmartCube behavioral signature similarity analysis", "format": "in vivo, mouse", "conditions": "for discrimination rate vs Clozapine (1.0 mg/kg) / discrimination rate vs Olanzapine (0.25 mg/kg) / discrimination rate vs Risperidone (0.06 mg/kg): SmartCube, test compound at 3 mg/kg i.p., rate of 0.70 or lower = similar; for SmartCube behavioral signature classification: mice, result in words", "source_text": "authors described that hyperlocomotion induced by L-687,414 was inhibited by a series of known antipsychotic drugs. […] These findings predict antipsychotic activity for the present compounds, making them useful for the treatment of positive (psychosis) and negative symptoms of schizophrenia, substance abuse, alcohol and drug addiction, obsessive-compulsive disorders, cognitive impairment, bipolar disorders, mood disorders, major depression, resistant depression, anxiety disorders, Alzheimer's disease, autism, Parkinson's disease, chronic pain, borderline personality disorder, sleep disturbances, chronic fatigue syndrome, stiffness, antiinflammatory effects in arthritis and balance problems, epilepsy and neurodevelopmental disorders with co morbid epilepsy. In addition to the reversal of L-687,414 induced hyperlocomotion experiment as described above, some compounds of the present invention have been tested in SmartCube®, an automated system in which the behaviors of compound-treated mice in response to multiple challenges are captured by digital video and analyzed with computer algorithms (Roberds et al., Frontiers in Neuroscience, 2011, Vol. 5, Art. 103, 1-4; Vadim Alexandrov, Dani Brunner, Taleen Hanania, Emer Leahy Eur. J. Pharmacol. 2015, 750, 82-99). In this way, the neuro-pharmacological effects of a test compound can be predicted by similarity to major classes of compounds, such as antipsychotics, anxiolytics and antidepressants.\nSmartCube® was used to compare the behavioral signature of a test compound to a database of behavioral signatures obtained from a large set of clinically approved reference drugs, grouped per indications. In this way, the neuro-pharmacological effects of a test compound can be predicted by similarity to major classes of compounds, such as antipsychotics, anxiolytics and antidepressants. This approach is ideally suited to screen collections of existing drugs or drug candidates with previously unknown neuropharmacology, which could expedite the development of new and unexpected treatments for psychiatric disorders.\nSome compounds of the present invention were injected i.p. at different doses 15 minutes before the test. At least 8 mice were used in each treatment group. Digital videos of the subjects were processed with computer vision algorithms to extract over 2000 dependent measures including frequency and duration of many different behavioral states. The results of the classifications are presented as bar charts for each compound and dose (mg/kg), the Y-axis indicates the relative probability that the test compound will show efficacy in the specific CNS indication.\nCompounds of the present invention show similar signatures to those of atypical antipsychotics. An independent analysis was performed on the unclassified data to determine the similarity of the example compounds to active doses of known atypical antipsychotics. For this analysis, we use discrimination rate as the measure of separability between the two drugs, i.e. one drug's “distinguishability” from another. A rate equal to 50% (or 0.5) corresponds to zero distinguishability. […] In most cases, the example compounds show a similarity to risperidone, clozapine and olanzapine with a discrimination rate of ≤0.70."}, "[3]": {"tested_on": "L-687,414-induced hyperlocomotion", "assay": "L-687,414-induced hyperlocomotion", "format": "in vivo, mouse", "conditions": "mice; dose 30 mg/kg ip, 15 min before s.c. 50 mg/kg L-687,414", "method": "The described compounds of formula I reduce L-687,414-induced hyperlocomotion. This was assessed by using a computerized Digiscan 16 Animal Activity Monitoring System (Omnitech Electronics, Columbus, Ohio) to quantify locomotor activity. Animals were kept under a 12 h light/dark cycle and experiments were performed during the light period. Each activity monitoring chamber consisted of a Plexiglas box (41×41×28 cm; W×L×H) with sawdust bedding on the floor surrounded by invisible horizontal and vertical infrared sensor beams. The test boxes were divided by a Plexiglas cross providing each mouse with 20×20 cm of moving space. Cages were connected to a Digiscan Analyzer linked to a computer that constantly collected the beam status information. Records of photocell beam interruptions for individual animals were taken every 5 min over the duration of the experimental session and the sum of the first 6 periods was used as the final parameter. At least 8 mice were used in each treatment group. Compounds were administered i.p 15 min before a s.c. injection of 50 mg/kg of L-687,414. […] Horizontal activity was then recorded for a 30-min time period. The % inhibition of L-687,414-induced hyperlocomotion was calculated according to the equation: ((Veh+L−687,414 horizontal activity−drug+L−687,414 horizontal activity)/Veh+L−687,414 horizontal activity)×100 […]"}}, "data": [{"smiles": "COc1ccc(N2C(=O)C(C)(C)c3ccc(-c4cnc(C)nc4)cc32)nn1", "note": "[Example 12, 1-(6-Methoxypyridazin-3-yl)-3,3-dimethyl-6-(2-methylpyrimidin-5-yl)indolin-2-one]", "values": [{"measurement": "IC50", "setting": "[1]", "result": 34.8, "unit": "nM"}, {"measurement": "discrimination rate vs Clozapine (1.0 mg/kg)", "setting": "[2]", "result": 0.67}, {"measurement": "discrimination rate vs Olanzapine (0.25 mg/kg)", "setting": "[2]", "result": 0.63}, {"measurement": "discrimination rate vs Risperidone (0.06 mg/kg)", "setting": "[2]", "result": 0.56}, {"measurement": "SmartCube behavioral signature classification", "setting": "[2]", "result": "similarity to atypical antipsychotics"}, {"measurement": "Inhibition, ip of L-687,414-induced hyperlocomotion", "setting": "[3]", "result": 94.6, "unit": "%"}]}, {"smiles": "COc1cncc(N2C(=O)C(C)(C)c3ccc(-c4cnc(C)nc4)cc32)c1", "note": "[Example 2, 1-(5-Methoxypyridin-3-yl)-3,3-dimethyl-6-(2-methylpyrimidin-5-yl)indolin-2-one]", "values": [{"measurement": "IC50", "setting": "[1]", "result": 438, "unit": "nM"}, {"measurement": "discrimination rate vs Clozapine (1.0 mg/kg)", "setting": "[2]", "result": 0.58}, {"measurement": "discrimination rate vs Olanzapine (0.25 mg/kg)", "setting": "[2]", "result": 0.68}, {"measurement": "discrimination rate vs Risperidone (0.06 mg/kg)", "setting": "[2]", "result": 0.51}, {"measurement": "SmartCube behavioral signature classification", "setting": "[2]", "result": "similarity to atypical antipsychotics"}, {"measurement": "Inhibition, ip of L-687,414-induced hyperlocomotion", "setting": "[3]", "result": 93.6, "unit": "%"}]}]}
